Values of other authors as cited in article PMC10593844, “Structure-function analyses reveal key molecular determinants of HIV-1 CRF01_AE resistance to the entry inhibitor temsavir” (Nature Communications, 2023).

How the values were obtained:
[1] = tested on: laboratory-adapted NL4-3 HIV-1 strain; parameters: method as in PMID 30604750; details: cited from earlier work
[2] = tested on: CRF01_AE strains; parameters: method as in PMID 30604750; details: range over CRF01_AE strains; cited from earlier work

Row | SMILES | fold greater inhibition than temsavir [1] | IC50 [2] [nM]
1 | COc1cnc(-c2csc(CN(C)CCCN(C)C)n2)c2[nH]cc(C(=O)C(=O)N3CCC(=C(C#N)c4ccccc4)CC3)c12 [BMS-814508] | 4 fold | 
2 | COc1cnc(-c2csc(C(=O)NCCO)n2)c2[nH]cc(C(=O)C(=O)N3CCC(=C(C#N)c4ccccc4)CC3)c12 [BMS-818251] | ~ 100 fold | 32 to 733
